Experimental data reported in patent publication US10472358B2, “1H-pyrrolo[2,3-c]pyridin-7(6H)-ones and pyrazolo[3,4-c]pyridin-7(6H)-ones as inhibitors of BET proteins” (Incyte Corporation, priority 2014, dated 2019).

Tested on: KMS.12.BM cells
Test: KMS.12.BM cell viability assay (Cell Titer-GLO, ATP quantitation)
Type: cell-based
Conditions: KMS-12-BM, 72 h; human myeloma cells, 3 days, concentration required for 50% cell death
Protocol: Example B1: KMS.12.BM Cell Viability Assay
KMS.12.BM cell line (human myeloma) was purchased from JCRB (Osaka, Japan) and maintained in RPMI with 10% FBS culture medium. To measure the cytotoxic activity of the compounds through ATP quantitation, the KMS.12.BM cells are plated in the RPMI culture medium at 5000 cells/well/per 100 μL into a 96-well polystyrene clear black tissue culture plate (Greiner-bio-one through VWR, NJ), in the presence or absence of a concentration range of test compounds. After 3 days, […] Cell Titer-GLO Luminescent (Promega, Madison, Wis.) cell culture agent is added to each well for 10 minutes at room temperature to stabilize the luminescent signal. This determines the number of viable cells in culture based on quantitation of the ATP present, which signals the presence of metabolically active cells. Luminescence is measured with the Top Count 384 (Packard Bioscience through Perkin Elmer, Boston, Mass.). Compound inhibition is determined relative to cells cultured with no drug and the IC50 is reported as the compound concentration required for 50% cell death.

Structure (SMILES)	IC50 [nM]
Cn1cc(-c2cc(S(C)(=O)=O)cc3c2OC(C)(C)C(=O)N3)c2cc[nH]c2c1=O [Example 45, 2,2-dimethyl-8-(6-methyl-7-oxo-6,7-dihydro-1H-pyrrolo[2,3-c]pyridin-4-yl)-6-(methylsulfonyl)-2H-1,4-benzoxazin-3(4H)-one]	≤ 1000
CC(C)C1Oc2c(-c3cn(C)c(=O)c4[nH]ccc34)cc(S(C)(=O)=O)cc2N(C)C1=O (stereo not shown) [Example 47, 2-isopropyl-4-methyl-8-(6-methyl-7-oxo-6,7-dihydro-1H-pyrrolo[2,3-c]pyridin-4-yl)-6-(methylsulfonyl)-2H-1,4-benzoxazin-3(4H)-one]	≤ 1000
Cn1cc(-c2cc(S(C)(=O)=O)cc3c2OC(CCO)C(=O)N3)c2cc[nH]c2c1=O (stereo not shown) [Example 48, 2-(2-hydroxyethyl)-8-(6-methyl-7-oxo-6,7-dihydro-1H-pyrrolo[2,3-c]pyridin-4-yl)-6-(methylsulfonyl)-2H-1,4-benzoxazin-3(4H)-one]	≤ 1000
CC(O)c1cc2c(c(-c3cn(C)c(=O)c4[nH]ccc34)c1)OC(C(C)C)C(=O)N2 (stereo not shown) [Example 50, 6-(1-hydroxyethyl)-2-isopropyl-8-(6-methyl-7-oxo-6,7-dihydro-1H-pyrrolo[2,3-c]pyridin-4-yl)-2H-1,4-benzoxazin-3(4H)-one]	≤ 1000
CCS(=O)(=O)c1cc2c(c(-c3cn(C)c(=O)c4[nH]ccc34)c1)OC(C(C)C)C(=O)N2 (stereo not shown) [Example 51, 6-(ethylsulfonyl)-2-isopropyl-8-(6-methyl-7-oxo-6,7-dihydro-1H-pyrrolo[2,3-c]pyridin-4-yl)-2H-1,4-benzoxazin-3(4H)-one]	≤ 1000
CC(C)C1Oc2c(cc(S(=O)(=O)C(C)C)cc2-c2cn(C)c(=O)c3[nH]ccc23)NC1=O (stereo not shown) [Example 52, 2-isopropyl-6-(isopropylsulfonyl)-8-(6-methyl-7-oxo-6,7-dihydro-1H-pyrrolo[2,3-c]pyridin-4-yl)-2H-1,4-benzoxazin-3(4H)-one]	≤ 1000
CC(C)C1Oc2c(-c3cn(C)c(=O)c4[nH]ccc34)cc(S(C)(=O)=O)cc2N(CC2CC2)C1=O (stereo not shown) [Example 53, 4-(cyclopropylmethyl)-2-isopropyl-8-(6-methyl-7-oxo-7-dihydro-1H-pyrrolo[2,3-c]pyridin-4-yl)-6-(methylsulfonyl)-2H-1,4-benzoxazin-3(4H)-one]	≤ 1000
CCN1C(=O)C(C(C)C)Oc2c(-c3cn(C)c(=O)c4[nH]ccc34)cc(S(C)(=O)=O)cc21 (stereo not shown) [Example 54, 4-ethyl-2-isopropyl-8-(6-methyl-7-oxo-6,7-dihydro-1H-pyrrolo[2,3-c]pyridin-4-yl)-6-(methylsulfonyl)-2H-1,4-benzoxazin-3(4H)-one]	≤ 1000
CCS(=O)(=O)c1cc(-c2cn(C)c(=O)c3[nH]ccc23)c2c(c1)N(C)C(=O)C(C(C)C)O2 (stereo not shown) [Example 55, 6-(ethylsulfonyl)-2-isopropyl-4-methyl-8-(6-methyl-7-oxo-6,7-dihydro-1H-pyrrolo[2,3-c]pyridin-4-yl)-2H-1,4-benzoxazin-3(4H)-one]	≤ 1000
CC(C)C1Oc2c(-c3cn(C)c(=O)c4[nH]ccc34)cc(S(=O)(=O)C(C)C)cc2N(C)C1=O (stereo not shown) [Example 56, 2-isopropyl-6-(isopropylsulfonyl)-4-methyl-8-(6-methyl-7-oxo-6,7-dihydro-1H-pyrrolo[2,3-c]pyridin-4-yl)-2H-1,4-benzoxazin-3(4H)-one]	≤ 1000
Cn1cc(-c2cc(S(C)(=O)=O)cc3c2OC2(CC2)C(=O)N3)c2cc[nH]c2c1=O [Example 57, 8-(6-methyl-7-oxo-6,7-dihydro-1H-pyrrolo[2,3-c]pyridin-4-yl)-6-(methylsulfonyl)spiro[1,4-benzoxazine-2,1′-cyclopropan]-3(4H)-one]	≤ 1000
Cn1cc(-c2cc(S(C)(=O)=O)cc3c2NC(C)(C)C(=O)N3)c2cc[nH]c2c1=O [Example 58, 3,3-dimethyl-5-(6-methyl-7-oxo-6,7-dihydro-1H-pyrrolo[2,3-c]pyridin-4-yl)-7-(methylsulfonyl)-3,4-dihydroquinoxalin-2(1H)-one]	≤ 1000
Cn1cc(-c2cc(S(C)(=O)=O)cc3c2NC2(CCCC2)C(=O)N3)c2cc[nH]c2c1=O [Example 59, 8′-(6-methyl-7-oxo-6,7-dihydro-1H-pyrrolo[2,3-c]pyridin-4-yl)-6′-(methylsulfonyl)-1′,4′-dihydro-3′H-spiro[cyclopentane-1,2′-quinoxalin]-3′-one]	≤ 1000
CC(C)[C@@H]1Nc2c(cc(S(C)(=O)=O)cc2-c2cn(C)c(=O)c3[nH]ccc23)NC1=O [Example 60, (3S)-3-isopropyl-5-(6-methyl-7-oxo-6,7-dihydro-1H-pyrrolo[2,3-c]pyridin-4-yl)-7-(methylsulfonyl)-3,4-dihydroquinoxalin-2(1H)-one]	≤ 1000
CC(C)[C@H]1Nc2c(cc(S(C)(=O)=O)cc2-c2cn(C)c(=O)c3[nH]ccc23)NC1=O [Example 61, (3R)-3-isopropyl-5-(6-methyl-7-oxo-6,7-dihydro-1H-pyrrolo[2,3-c]pyridin-4-yl)-7-(methylsulfonyl)-3,4-dihydroquinoxalin-2(1H)-one]	≤ 1000
Cn1cc(-c2cc(S(C)(=O)=O)cc3c2NC2(CCC2)C(=O)N3)c2cc[nH]c2c1=O [Example 62, 8′-(6-methyl-7-oxo-6,7-dihydro-1H-pyrrolo[2,3-c]pyridin-4-yl)-6′-(methylsulfonyl)-1′,4′-dihydro-3′H-spiro[cyclobutane-1,2′-quinoxalin]-3′-one]	≤ 1000
CN1C(=O)C2(CC2)Oc2c(-c3cn(C)c(=O)c4[nH]ccc34)cc(S(C)(=O)=O)cc21 [Example 63, 4-methyl-8-(6-methyl-7-oxo-6,7-dihydro-1H-pyrrolo[2,3-c]pyridin-4-yl)-6-(methylsulfonyl)spiro[1,4-benzoxazine-2,1′-cyclopropan]-3(4H)-one]	≤ 1000
Cn1cc(-c2cc(S(C)(=O)=O)cc3c2NC2(CCCCC2)C(=O)N3)c2cc[nH]c2c1=O [Example 64, 8′-(6-methyl-7-oxo-6,7-dihydro-1H-pyrrolo[2,3-c]pyridin-4-yl)-6′-(methylsulfonyl)-1′,4′-dihydro-3′H-spiro[cyclohexane-1,2′-quinoxalin]-3′-one]	≤ 1000
Cn1cc(-c2cc(S(C)(=O)=O)cc3c2OC2(CC2)C(=O)N3)c2cn[nH]c2c1=O [Example 65, 8-(6-methyl-7-oxo-6,7-dihydro-1H-pyrazolo[3,4-c]pyridin-4-yl)-6-(methylsulfonyl)spiro[1,4-benzoxazine-2,1′-cyclopropan]-3(4H)-one]	≤ 1000
CN1C(=O)C2(CC2)Oc2c(-c3cn(C)c(=O)c4[nH]ncc34)cc(S(C)(=O)=O)cc21 [Example 66, 4-methyl-8-(6-methyl-7-oxo-6,7-dihydro-1H-pyrazolo[3,4-c]pyridin-4-yl)-6-(methylsulfonyl)spiro[1,4-benzoxazine-2,1′-cyclopropan]-3(4H)-one]	≤ 1000
CC(C)C1Oc2c(cc(S(=O)(=O)N(C)C)cc2-c2cn(C)c(=O)c3[nH]ccc23)NC1=O (stereo not shown) [Example 67, 2-isopropyl-N,N-dimethyl-8-(6-methyl-7-oxo-6,7-dihydro-1H-pyrrolo[2,3-c]pyridin-4-yl)-3-oxo-3,4-dihydro-2H-1,4-benzoxazine-6-sulfonamide]	≤ 1000
CNS(=O)(=O)c1cc2c(c(-c3cn(C)c(=O)c4[nH]ccc34)c1)OC(C(C)C)C(=O)N2 (stereo not shown) [Example 68, 2-isopropyl-N-methyl-8-(6-methyl-7-oxo-6,7-dihydro-1H-pyrrolo[2,3-c]pyridin-4-yl)-3-oxo-3,4-dihydro-2H-1,4-benzoxazine-6-sulfonamide]	≤ 1000
